From US12545699B2, “Bivalent LECA inhibitors targeting biofilm formation of Pseudomonas aeruginosa” (HELMHOLTZ-ZENTRUM FÜR INFEKTIONSFORSCHUNG GMBH, priority 2019, dated 2026)

Legend:
[1] = target: T1, LecA (Pseudomonas aeruginosa, UniProt Q05097); test: isothermal titration microcalorimetry (ITC); assay type: binding; conditions: ITC Kd, Table 1; TBS/Ca2+ buffer, 25° C.
T1 construct: made in house
Protocol: Expression and purification of LecA as well as competitive binding by fluorescence polarization was performed as described by Joachim et al. (Org. Biomol. Chem. 2016). Microcalorimetry was performed using an ITC200 (GE Healthcare) at highest possible LecA concentration (typically 200-400 μM) in the cell and titration of ligand in the same buffer at 25° C.

[2] = target: T1, LecA; test: surface plasmon resonance (SPR) direct binding to immobilised LecA
Protocol: All experiments were performed on a BIACORE X100 instrument (GE Healthcare) at 25° C. and a flow rate of 10 μL min^−1. […] LecA was dissolved in 10 mM sodium acetate pH 4.5 (100 μg mL^−1) and injected over the activated chip surface on channel 2 (contact time of 540 s) until the response of ˜4000 RU was reached. Excess free amine groups were capped with an injection of 1 M ethanolamine (contact time 540 s). Bivalent compounds were dissolved in 100% DMSO and subsequently diluted to required concentrations in a running buffer (10 mM phosphate buffer pH 7.4, 2.7 mM KCl, 137 mM NaCl, 100 μM CaCl2, 0.05% Tween 20, 5% DMSO). The bivalent analytes were subjected to single-cycle kinetics analyses (contact time of 120 s and dissociation time of 120 s) consisting of injections of the analytes at 0, 10, 50, 100, and 200 nM over the immobilised-LecA. The chip surface was regenerated by 5× injections of 100 μM 4-nitrophenyl-β-D-galactose (contact time of 120 s). KD determination was performed using BIACORE X100 evaluation software (version 2.0) by applying 1:1 binding model to fit the experimental data. • [1] H. E. Gottlieb, V. Kotlyar, A. Nudelman, J. Org. Chem. 1997, 62, 7512-7515. • [2] M. Seligman, J. Biol. Chem. 1952, 195, 239-249. • [3] S. T. Xue, W. Y. He, L. L. Ma, H. Q. Wang, B. Wang, G. H. Zheng, X. Y. Ji, T. Zhang, Y. H. Li, J. D. Jiang, et al., Molecules 2013, 18, 3789-3805. • [4] Y. Li, H. Mo, G. Lian, B. Yu, Carbohydr. Res. 2012, 363, 14-22. • [5] F. Yang, F. Xie, Y. Zhang, Y. Xia, W. Liu, F. Jiang, C. Lam, Y. Qiao, D. Xie, J. Li, et al., Bioorganic Med. Chem. Lett. 2017, 27, 2166-2170. Synthesis Schemes and Results of Biophysical Assays

[3] = target: T1, LecA; test: competitive binding assay based on fluorescence polarisation (FP); conditions: FP IC50, Table 1, 20 μM LecA
Protocol: Binding of ligands to LecA was evaluated in competitive assay based on fluorescence polarisation.

T1 sequence (Q05097 whole entry): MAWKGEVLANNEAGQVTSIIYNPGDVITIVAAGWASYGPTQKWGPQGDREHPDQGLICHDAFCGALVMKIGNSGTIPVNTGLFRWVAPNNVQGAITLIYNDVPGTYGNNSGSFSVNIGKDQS

Row | Compound | Kd [1] [µM] | Kd [2] [µM] | IC50 ([3]; 10 nM reporter ligand 8, TBS/Ca2+ buffer with 25% DMSO (**)) [µM] | IC50 ([3]; 10 nM reporter ligand 8, TBS/Ca2+ buffer with 4% DMSO (*)) [µM]
1 | COc1ccc(C=NNC(=O)c2cccc(OC3OC(CO)C(O)C(O)C3O)c2)cc1 (stereo not drawn) [Compound F6m] | 2.4 ± 1.33 | 4.9 ± 0.1 | 21.6 ± 4.5 | –
2 | COc1ccc(C=NNC(=O)c2ccc(OC3OC(CO)C(O)C(O)C3O)cc2)cc1 (stereo not drawn) [Compound F6p] | 6.11 ± 0.48 | 4.8 ± 2.1 | – | 23.1
